Results on one compound are retold here after patent US10940218B2, “Treatment of meningiomas using phenylbenzothiazole, stilbene, biphenylalkyne, or pyridine derivatives” (MAYO FOUNDATION FOR MEDICAL EDUCATION AND RESEARCH, priority 2012, dated 2021).

Entries after “also recorded” stand apart in the source; their conditions may differ. A value given as a limit tells only on which side of the number the result lay.

For one assay, the system named is normal adjacent tissues. Nature of the assay: PiB PET/CT activity of normal adjacent tissues. It is filed as in vivo, human. An excerpt: (§1) The radiologic interpretations of MRI, CT and FDG PET/CT scans from a population of 834 people who participated in the population-based Mayo Clinic Study of Aging (MCSA) from March 2006 through September 2011 were reviewed for the presence of tumors or other brain lesions. (See, Kantarci K, Lowe V, Przybelski S A, et al., “Magnetic resonance spectroscopy, {beta}-amyloid load, and cognition in a population-based sample of cognitively normal older adults”, Neurology 2011; 77:951-8; and Roberts R O, Geda Y E, Knopman D S, et al., “The Mayo Clinic Study of Aging: design and sampling, participation, baseline measures and sample characteristics”, Neuroepidemiology 2008; 30:58-69.) Participants were randomly selected for recruitment in the MCSA from a population of older adult residents of Olmsted County, Minn., USA. Those with neurological, psychological or systemic illnesses were not excluded. Individuals with dementia, or those unable to be imaged for medical reasons were excluded. All patients were imaged with C11-PiB PET/CT, F18-FDG PET/CT and non-contrast MRI at least once as part of the study. Any additional patient imaging and clinical history was then reviewed.
PET imaging was performed as part of the Mayo Clinic Study of Aging as previously described. (See Kantarci K, Lowe V, Przybelski S A, et al., “Magnetic resonance spectroscopy, {beta}-amyloid load, and cognition in a population-based sample of cognitively normal older adults”, Neurology 2011; 77:951-8.) PiB PET/CT, then FDG PET/CT were performed on the same day. PET/CT imaging was performed on a 690XT or DRX PET/CT tomograph (GE Healthcare). The PET sinograms were reconstructed using a fully-3D OSEM algorithm into a 30 cm field of view; the pixel size was 1.2 mm and the slice thickness was 3.27 mm (DRX) or 1.96 mm (690XT). CT imaging was obtained immediately prior to PET acquisition and used for attenuation correction. Cerebral PiB retention, a marker of amyloid deposition, was measured as previously described. (See Kantarci K, Lowe V, Przybelski S A, et al. “Magnetic resonance spectroscopy, {beta}-amyloid load, and cognition in a population-based sample of cognitively normal older adults”, Neurology 2011; 77:951-8.)

A further assay relates to non-meningioma tumors. Nature of the assay: PiB PET/CT imaging of non-meningioma tumors and lesions in patients. Format: in vivo, human.
From the text: An Alzheimer's imaging database of two hundred forty-one patients was reviewed. […] All patients had been imaged by at least one MRI, as well as by FDG-PET/CT and PET/CT using the compound of formula (V). MRI reports of all patients were reviewed for possible meningiomas and other tumors. […] The diagnostic confidence of the radiologists interpreting the studies varied slightly, depending on factors such as tumor location and previous imaging. […] Tumors smaller than 7 millimeters are generally considered too small to be evaluated by PET or PET/CT. This is an excepted limitation of PET or PET/CT as a modality. […] None of the meningiomas in the series would be classified as atypical or aggressive based on MRI or CT imaging. One presumed extracranial schwannoma was seen, showing mild uptake on FDG-PET/CT, but no uptake on PET/CT using the compound of formula (V).
as §1
Tumors found in any of the subjects were then categorized as possible meningiomas or non-meningiomas based on the reading of the reporting neuroradiologist. Possible meningiomas were further reviewed as a group. A more strict set of criteria were applied to select a subset of the possible meningiomas that were designated “high-likelihood meningiomas” for further analysis and were defined by (1) tumors that were confirmed to be enhancing on diagnostic MRI (obtained separately for clinical purposes) and (2) tumors that had greater than two years of follow-up imaging confirming no growth or slow growth (1-2 mm per year). When the lead diagnosis of the identified tumor was metastasis, the diagnosis was confirmed by biopsy or autopsy. All tumors smaller than 5 mm thick were excluded, given they fall below the generally accepted lower limits of PET/CT resolution.
PET imaging was performed as part of the Mayo Clinic Study of Aging as previously described. (See Kantarci K, Lowe V, Przybelski S A, et al., “Magnetic resonance spectroscopy, {beta}-amyloid load, and cognition in a population-based sample of cognitively normal older adults”, Neurology 2011; 77:951-8.) PiB PET/CT, then FDG PET/CT were performed on the same day. PET/CT imaging was performed on a 690XT or DRX PET/CT tomograph (GE Healthcare). The PET sinograms were reconstructed using a fully-3D OSEM algorithm into a 30 cm field of view; the pixel size was 1.2 mm and the slice thickness was 3.27 mm (DRX) or 1.96 mm (690XT). CT imaging was obtained immediately prior to PET acquisition and used for attenuation correction. Cerebral PiB retention, a marker of amyloid deposition, was measured as previously described. (See Kantarci K, Lowe V, Przybelski S A, et al. “Magnetic resonance spectroscopy, {beta}-amyloid load, and cognition in a population-based sample of cognitively normal older adults”, Neurology 2011; 77:951-8.) […]

As for `[11CH3]Nc1ccc(-c2nc3ccc(O)cc3s2)cc1` [PiB, [N-Methyl-^11C]2-(4′-methylaminophenyl)-6-hydroxybenzothiazole], the “average SUVmax” value in the assay with normal adjacent tissues (nearby normal bone) came out at 0.6; with normal adjacent tissues (nearby normal grey matter), 1.1. Moreover, the PiB activity result is given as “high level of nonspecific PiB activity” in the assay with normal adjacent tissues (nearby normal white matter, FIG. 5) and “only trace PiB activity” in the assay on non-meningioma tumors (non-tumorous lesions (strokes, arachnoid cysts, multiple sclerosis lesions)). In addition, the “average background SUVmax” value in the assay on normal adjacent tissues (surrounding cerebrospinal fluid) is 0.2. Further, the “uptake on PET/CT” value in the assay on non-meningioma tumors (Example 1, other tumors) was “little to no uptake”; with non-meningioma tumors (Example 1, presumed extracranial schwannoma) it was “no uptake”; with non-meningioma tumors (Example 3, 25 types of tumors and non-neoplastic lesions incl. schwannoma, hamartoma, ependymoma, pituitary adenoma), “only background uptake or no uptake”. The SUVmax in the assay with non-meningioma tumors (FIG. 4 melanoma metastasis) is 0.9; in the assay on non-meningioma tumors (FIG. 4 small cell lung cancer metastasis) it was 1.1; in the assay with non-meningioma tumors (FIG. 5 Panel B, pituitary macroadenoma) it was 0.9; with non-meningioma tumors (FIG. 5 Panel D, schwannoma), 0.8; in the assay with non-meningioma tumors (FIG. 5 Panel F, ependymoma), 0.4; with non-meningioma tumors (FIG. 5 Panel H, postoperative changes/scarring) it was 0.6. Further, the SUVmax in the assay on non-meningioma tumors (all non-meningioma intracranial tumors identified) is reported as at most 1.1; in the assay with non-meningioma tumors (bony lesions (hemangiomas, fibrous dysplasia, hyperostosis frontalis, osteoma)) it was below 1.0; with non-meningioma tumors (extra-cranial tumors (sinus polyps, mucus retention cysts, mucocele, Warthin's tumors, inverted papilloma)), below 1.2; in the assay with non-meningioma tumors (vascular lesions (aneurysms, telangiectasias, cavernomas, venous angiomas)), at most 1.2. The “PiB PET/CT result” value in the assay with non-meningioma tumors (all non-meningioma intracranial tumors (metastases, pituitary macroadenomas, schwannomas, ependymoma)) is listed as “PiB activity equal or less than normal adjacent tissue; also recorded: negative”; with non-meningioma tumors (intracranial metastases (melanoma, small cell lung cancer)) it was “negative with low activity”.
